Source: the supplement of paper PMC10307832

Legend:
Test in all cases: relative viability (nuclei count vs DMSO), 5 days (fraction); higher = more cells survive
[1] = compound: COc1cc(N2CCC(N3CCN(C)CC3)CC2)ccc1Nc1ncc(Cl)c(Nc2ccccc2S(=O)(=O)C(C)C)n1 [NVP-TAE684] + COc1cccc2cc(-c3nc([C@H]4CC[C@H](C(=O)O)CC4)n4ncnc(N)c34)[nH]c12 [OSI-027] (partner 0.5 µM)
Method in brief: (§1)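 Lung cancer cell lines were pin-tool dosed in 1536-well plates on the day after seeding, with either a lone drug or a fixed anchor-drug dose plus five library-drug doses (not always all listed) in √10 steps. Nuclei were counted on 4× images after 5 days. Relative viability is the ratio of treated-well to vehicle-well nuclei counts, with each value a median of duplicate plates.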

[2] = compound: COc1cc(N2CCC(N3CCN(C)CC3)CC2)ccc1Nc1ncc(Cl)c(Nc2ccccc2S(=O)(=O)C(C)C)n1 [NVP-TAE684] + CS(=O)(=O)N1CCN(Cc2cc3nc(-c4cccc5[nH]ncc45)nc(N4CCOCC4)c3s2)CC1 [Pictilisib] (partner 1 µM)
Method in brief: as §1

[3] = compound: C1=CC=C2C(=C1)N=C(S2)C(C#N)C3=NC(=NC=C3)NCCC4=CN=CC=C4 + Cc1nc(Nc2ncc(C(=O)Nc3c(C)cccc3Cl)s2)cc(N2CCN(CCO)CC2)n1 [Dasatinib] (partner 0.075 µM)
Method in brief: as §1

[4] = compound: COc1cc(N2CCC(N3CCN(C)CC3)CC2)ccc1Nc1ncc(Cl)c(Nc2ccccc2S(=O)(=O)C(C)C)n1 [NVP-TAE684] + Nc1nc2[nH]cc(CCc3ccc(C(=O)N[C@@H](CCC(=O)O)C(=O)O)cc3)c2c(=O)[nH]1 [Pemetrexed] (partner 0.2 µM)
Method in brief: as §1

[5] = compound: C1=CC=C2C(=C1)N=C(S2)C(C#N)C3=NC(=NC=C3)NCCC4=CN=CC=C4 + NC(=O)Nc1cc(-c2cccc(F)c2)sc1C(=O)N[C@H]1CCCNC1 [AZD7762] (partner 0.2 µM)
Method in brief: as §1

Cell Line	relative viability ([1]; first compound 0.2 µM)	relative viability ([1]; first compound 0.6325 µM)	relative viability ([1]; first compound 2 µM)	relative viability ([2]; first compound 0.2 µM)	relative viability ([2]; first compound 0.6325 µM)	relative viability ([2]; first compound 2 µM)	relative viability ([3]; first compound 0.005 µM)	relative viability ([3]; first compound 0.01581 µM)	relative viability ([3]; first compound 0.05 µM)	relative viability ([3]; first compound 0.1581 µM)	relative viability ([3]; first compound 0.5 µM)	relative viability ([4]; first compound 0.2 µM)	relative viability ([4]; first compound 0.6325 µM)	relative viability ([4]; first compound 2 µM)	relative viability ([5]; first compound 0.005 µM)	relative viability ([5]; first compound 0.05 µM)	relative viability ([5]; first compound 0.1581 µM)	relative viability ([5]; first compound 0.5 µM)	relative viability ([5]; first compound 0.01581 µM)
NCI-H1395	0.712	0.482	0.567	0.659	0.61	0.589	0.353	0.398	0.408	0.411	0.396	0.971	0.831	0.823	0.392	0.379	0.428	0.389	
NCI-H1437	0.79		0.203	0.369	0.433	0.297	0.363	0.303	0.528	0.562	0.376	0.354	0.327	0.243	1.12	1.11	1.13	0.968	1.12
NCI-H1651	0.692	0.79	0.295	0.366	0.629	0.402	0.307	0.35	0.587	0.393	0.3	0.594	0.566	0.565	0.428	0.533	0.509	0.471	0.463
NCI-H1666	0.901	0.767	0.641	0.31	0.348	0.274	0.603	0.754	0.734	0.838	0.818	0.985	0.796	0.77	0.956	0.817	0.805	0.803	0.764
NCI-H1734	0.679	0.518	0.387	0.422	0.364	0.336		0.476	0.479	0.605	0.401	0.47	0.437	0.348	0.443	0.615	0.566	0.514	0.658
NCI-H1755	0.636	0.672	0.453	0.5	0.414	0.408	0.365	0.397	0.404	0.456	0.384	0.394	0.583	0.384	0.458	0.506	0.542	0.43	0.539
NCI-H1792	0.779	0.731	0.818	0.227	0.256	0.232	0.722	0.83	0.837	1.29	0.665	0.773	0.799	0.799		0.8	1.28	0.37	0.631
NCI-H1793	0.267	0.274	0.204	0.426	0.326	0.519	0.366	0.419	0.363	0.436	0.435	0.929	0.651	0.779		0.58	0.513	0.306	0.391
NCI-H1915	0.678	0.668	0.611	0.98	0.932	0.874	0.36	0.294	0.28	0.335	0.357	0.537	0.463	0.472		0.698	0.693	0.699	0.679
NCI-H1944	0.428	0.36	0.278	0.334	0.308	0.3	0.211	0.195	0.21	0.22	0.2	0.705	0.585	0.631	0.541	0.603	0.466	0.456	0.557
NCI-H1975	0.732	0.594	0.341	0.281	0.231	0.191	0.352	0.333	0.35	0.37	0.24	0.297	0.283	0.236	0.639	0.711	0.743	0.506	0.635
NCI-H1993	0.494	0.466	0.593		0.781	0.832	0.565	0.607	0.487	0.673	0.536	0.518	0.555	0.436	0.664	1.03	1.01	0.7	0.749
NCI-H2085	0.777	0.739	0.57	0.445	0.427	0.415	0.277	0.216	0.236	0.237	0.219	1.01	0.874	0.813	0.833	1.02	1.07	0.905	0.956
NCI-H2087	0.538	0.438	0.354	0.942	0.886	0.858	0.72	0.927	0.81	1.09	0.651	0.679	0.707	0.57	1.42	1.41	1.45	1.06	1.39
NCI-H2126	0.603	0.631	0.493	0.491	0.501	0.428	0.603	0.543	0.573	0.584	0.49	0.734	0.67	0.554	0.969	1.04	1.07	0.974	1.06
NCI-H2170	0.703	0.579	0.63	0.272	0.248	0.275	0.447	0.498	0.501	0.675	0.611	0.274	0.27	0.228	0.861	0.861	0.968	0.744	0.995
NCI-H2347	0.403	0.368	0.301	0.572	0.482	0.597	0.359	0.814	0.261	0.347	0.307	0.431	0.38	0.406	0.782	0.716	0.839	0.729	0.815
